The results in this text go back to ChEMBL document CHEMBL3046939, “Design, synthesis, and anti-allergic activities of novel (R)(-)-1-[(4-chlorophenyl)phenyl methyl]piperazine derivatives” (2012).

What all share (assay type): functional
The subject of assay [1] is Cavia porcellus. Briefly: Antipruritic activity in Cavia porcellus (guinea pig) histamine phosphate-induced itching model assessed as increase of total amount of histamine phosphate level at 50 mg/kg, administered 1 hr before histamine phosphate challenge with food relative to levocetirizine.
The subject of assay [2] is Cavia porcellus. In words: Antipruritic activity in Cavia porcellus (guinea pig) histamine phosphate-induced itching model assessed as increase of total amount of histamine phosphate level at 50 mg/kg, administered 1 hr before histamine phosphate challenge with food relative to control.
Assay [3] relates to Cavia porcellus. Briefly: Antiasthmatic activity in Cavia porcellus (guinea pig) histamine phosphate-induced asthmatic model assessed as latent period of asthma at 50 mg/kg, administered 1 hr before histamine phosphate challenge with food (reference value: 115.4 +/- 126.2 /s).

Consider `Cc1cc(C)nc(NS(=O)(=O)c2ccc(NCCN3CCN([C@H](c4ccccc4)c4ccc(Cl)cc4)CC3)cc2)n1`, for which the Activity in assay [1] is reported as -60.28%; in assay [2] it was 92.07%. Further, in assay [3], the Time was determined as 167.4 s.
Consider `Nc1ccc(S(=O)(=O)NCCN2CCN([C@H](c3ccccc3)c3ccc(Cl)cc3)CC2)cc1`, for which the results for the Activity in assay [1] and in assay [2] were 2.55% and 395.87%, respectively. Further, the Time in assay [3] is reported as 266.2 s.
Consider `O=S(=O)(Nc1ncccn1)c1ccc(NCCN2CCN([C@H](c3ccccc3)c3ccc(Cl)cc3)CC2)cc1`, for which the Activity in assay [1] turned out to be 217.8%; in assay [2], 1436.72%. Further, in assay [3], the Time is given as 246.4 s.
Consider `COc1ccc(N(CCN2CCN([C@H](c3ccccc3)c3ccc(Cl)cc3)CC2)S(=O)(=O)c2ccc(N)cc2)nn1`, for which the Activity in assay [1] came out at 62.62%; in assay [2], 686.34%. The Time in assay [3] is reported as 288 s.
As to `COc1ccc(NS(=O)(=O)c2ccc(NCCN3CCN([C@H](c4ccccc4)c4ccc(Cl)cc4)CC3)cc2)nn1`, the figures for the Activity in assay [1] and in assay [2] were -21.49% and 279.65%, respectively. For the same compound, the Time in assay [3] was 360 s.
On to `Nc1ccc(S(=O)(=O)N(CCCN2CCN([C@H](c3ccccc3)c3ccc(Cl)cc3)CC2)c2ccc(Cl)nn2)cc1`, for which the Activity is 10.1% in assay [1] and 432.37% in assay [2]. Besides, in assay [3], the Time is listed as 301.8 s.
As to `O=S(=O)(Nc1ccc(Cl)nn1)c1ccc(NCCCN2CCN([C@H](c3ccccc3)c3ccc(Cl)cc3)CC2)cc1`, the values for the Activity in assay [1] and in assay [2] were 82.74% and 783.62%, respectively. The Time in assay [3] turned out to be 184.1 s.
The corresponding values for `Nc1ccc(S(=O)(=O)N(CCCN2CCN([C@H](c3ccccc3)c3ccc(Cl)cc3)CC2)c2nccs2)cc1` are 2.44%, 395.34% and 240.3 s.
The corresponding values for `O=S(=O)(Nc1nccs1)c1ccc(NCCCN2CCN([C@H](c3ccccc3)c3ccc(Cl)cc3)CC2)cc1` are -18.04%, 296.34% and 324.8 s.
The corresponding values for `Cc1cc(C)nc(NS(=O)(=O)c2ccc(NCCCN3CCN([C@H](c4ccccc4)c4ccc(Cl)cc4)CC3)cc2)n1` are -0.15%, 382.83% and 136.8 s.
Turning to `Nc1ccc(S(=O)(=O)NCCCN2CCN([C@H](c3ccccc3)c3ccc(Cl)cc3)CC2)cc1`, the Activity was determined as 107.15% in assay [1] and 901.67% in assay [2]. For the same compound, the Time in assay [3] is 269.4 s.
The corresponding values for `O=S(=O)(Nc1ncccn1)c1ccc(NCCCN2CCN([C@H](c3ccccc3)c3ccc(Cl)cc3)CC2)cc1` are 39.93%, 576.61% and 229.2 s.
The corresponding values for `COc1ccc(NS(=O)(=O)c2ccc(NCCCN3CCN([C@H](c4ccccc4)c4ccc(Cl)cc4)CC3)cc2)nn1` are 43.42%, 593.5% and 295.6 s.
Taken in the same sequence, the figures for `O=C(O)CNCCCN1CCN([C@H](c2ccccc2)c2ccc(Cl)cc2)CC1` were 22.71%, 493.36% and 360 s.
For the compound `C[C@H](NCCCN1CCN([C@H](c2ccccc2)c2ccc(Cl)cc2)CC1)C(=O)O`, the Activity in assay [1] is 113.8%; in assay [2] it was 933.8%. The Time in assay [3] came out at 307.6 s.
Taken in the same sequence, the figures for `Nc1ccc(S(=O)(=O)N(CCN2CCN([C@H](c3ccccc3)c3ccc(Cl)cc3)CC2)c2ccc(Cl)nn2)cc1` were -78%, 6.4% and 151.2 s.
On to `O=S(=O)(Nc1ccc(Cl)nn1)c1ccc(NCCN2CCN([C@H](c3ccccc3)c3ccc(Cl)cc3)CC2)cc1`, for which the Activity in assay [1] was determined as 103.46%; in assay [2], 883.81%. Also, the Time in assay [3] is recorded as 255.5 s.
In the case of `Nc1ccc(S(=O)(=O)N(CCN2CCN([C@H](c3ccccc3)c3ccc(Cl)cc3)CC2)c2nccs2)cc1`, the Activity in assay [1] was determined as 9.4%; in assay [2], 429.01%. Moreover, in assay [3], the Time worked out at 184.8 s.
The corresponding values for `O=S(=O)(Nc1nccs1)c1ccc(NCCN2CCN([C@H](c3ccccc3)c3ccc(Cl)cc3)CC2)cc1` are -18.8%, 292.61% and 360 s.
